US20250236603A1, “SOLID FORMS OF ALECTINIB AND ALECTINIB SALTS” (Synthon B.V., priority 2022, published 2025)
Like-named read-outs stand apart in the source and are kept apart here.

How the values were obtained:
[1] = Solubilities of prepared salts (buffer pH 1.2 with 4% Triton X-100, HPLC); conditions: 100 rpm
Experimental: (§1) 20 mg of the Alectinib salt was mixed 10 ml of a mixture of buffer pH 1.2 and 4% Triton X-100. The mixture was placed into a stirring carousel at temperature +37° C. and 100 rpm. After 1 hour and 4 hours about 1 mL of each sample was taken and filtered through a 0.45 μm filter into a vial. Then each sample was diluted with Solvent solution to get signal of absorbance ≤1 at 265 nm, transferred into a vial and measured by HPLC method.
(§2) 20 mg of the Alectinib salt was mixed 10 ml of a mixture of buffer pH 1.2 and 4% Triton X-100. The mixture was placed into a stirring carousel at temperature+37° C. and 100 rpm. After 1 hour and 4 hours about 1 mL of each sample was taken and filtered through a 0.45 μm filter into a vial. Then each sample was diluted with Solvent solution to get signal of absorbance≤1 at 265 nm, transferred into a vial and measured by HPLC method.

[2] = pH 1.2
Experimental: as §1, §2

[3] = Example 18, 20 mg salt in 10 ml buffer pH 1.2 and 4% Triton X-100, +37° C.
[4] = Example 10, 20 mg salt in 10 ml buffer pH 1.2 and 4% Triton X-100, +37° C.
[5] = Example 28, 20 mg salt in 10 ml buffer pH 1.2 and 4% Triton X-100, +37° C.
[6] = Example 18, 20 mg salt in 10 ml buffer pH 1.2 and 4% Triton X-100, +37° C., maleate salt
[7] = Example 10, 20 mg salt in 10 ml buffer pH 1.2 and 4% Triton X-100, +37° C., acetate salt

| Compound | Solubility after 1 hour [1, 3] | Solubility after 1 hour [2] | further results |
| --- | --- | --- | --- |
| CCc1cc2c(cc1N1CCC(N3CCOCC3)CC1)C(C)(C)c1[nH]c3cc(C#N)ccc3c1C2=O.O=C(O)C=CC(=O)O [Fumaric acid (1:1) salt, Form 2, Alectinib fumaric acid (1:1) salt] | 1300 µg/mL |  |  |
| CCc1cc2c(cc1N1CCC(N3CCOCC3)CC1)C(C)(C)c1[nH]c3cc(C#N)ccc3c1C2=O.O=C(O)C=CC(=O)O [Fumaric acid (1:1) salt, Form 6, Alectinib fumaric acid (1:1) salt] | 1220 µg/mL |  |  |
| CCc1cc2c(cc1N1CCC(N3CCOCC3)CC1)C(C)(C)c1[nH]c3cc(C#N)ccc3c1C2=O.CCc1cc2c(cc1N1CCC(N3CCOCC3)CC1)C(C)(C)c1[nH]c3cc(C#N)ccc3c1C2=O.O=C(O)C=CC(=O)O [Fumaric acid (2:1) salt, Form 2, Alectinib fumaric acid (2:1) salt] | 1230 µg/mL |  |  |
| CCc1cc2c(cc1N1CCC(N3CCOCC3)CC1)C(C)(C)c1[nH]c3cc(C#N)ccc3c1C2=O.Cl [HCl, reference compound] | 370 µg/mL |  | Solubility after 1 hour [1, 4]: 370 µg/mL; Solubility after 1 hour [1, 5]: 370 µg/mL |
| CCc1cc2c(cc1N1CCC(N3CCOCC3)CC1)C(C)(C)c1[nH]c3cc(C#N)ccc3c1C2=O.O=C(O)C=CC(=O)O [Hydrogen maleate salt, Form 1, Alectinib hydrogen maleate salt] |  |  | Solubility after 1 hour [1, 6]: 2380 µg/mL |
| CCc1cc2c(cc1N1CCC(N3CCOCC3)CC1)C(C)(C)c1[nH]c3cc(C#N)ccc3c1C2=O.O=C(O)C=CC(=O)O [Hydrogen maleate salt, Form 2, Alectinib hydrogen maleate salt] |  |  | Solubility after 1 hour [1, 6]: 1260 µg/mL |
| CCc1cc2c(cc1N1CCC(N3CCOCC3)CC1)C(C)(C)c1[nH]c3cc(C#N)ccc3c1C2=O.CS(=O)(=O)O [Methane sulfonate salt, Form 3, Alectinib methane sulfonate salt] |  | 1210 µg/mL |  |
| CCc1cc2c(cc1N1CCC(N3CCOCC3)CC1)C(C)(C)c1[nH]c3cc(C#N)ccc3c1C2=O.CS(=O)(=O)O [Methane sulfonate salt, Form 12, Alectinib methane sulfonate salt] |  | 1350 µg/mL |  |
| CCc1cc2c(cc1N1CCC(N3CCOCC3)CC1)C(C)(C)c1[nH]c3cc(C#N)ccc3c1C2=O.CS(=O)(=O)O [Methane sulfonate salt, Form 13, Alectinib methane sulfonate salt] |  | 1300 µg/mL |  |
| CCc1cc2c(cc1N1CCC(N3CCOCC3)CC1)C(C)(C)c1[nH]c3cc(C#N)ccc3c1C2=O.CS(=O)(=O)O [Methane sulfonate salt, Form 14, Alectinib methane sulfonate salt] |  | 1320 µg/mL |  |
| CCc1cc2c(cc1N1CCC(N3CCOCC3)CC1)C(C)(C)c1[nH]c3cc(C#N)ccc3c1C2=O.CS(=O)(=O)O [Methane sulfonate salt, Form 15, Alectinib methane sulfonate salt] |  | 1190 µg/mL |  |
| Alectinib acetate salt [Acetate, Form 2] |  |  | Solubility after 1 hour [1, 7]: 870 µg/mL |
| Alectinib acetate salt [Acetate, Form 4] |  |  | Solubility after 1 hour [1, 7]: 1220 µg/mL |
| Alectinib tartrate salt [Tartrate, Form 8] | 1230 µg/mL |  |  |
| Tosylate [reference compound] | 500 µg/mL |  | Solubility after 1 hour [1, 4]: 500 µg/mL; Solubility after 1 hour [1, 5]: 500 µg/mL |
